In experiment [1] the target is CSF-1R (Homo sapiens, UniProt P07333). In words: CSF-1R in vitro biochemical kinase study (ADP-Glo assay). The conditions noted are these: 500 μM ATP, * = average of multiple tests, read-out: Enzymatic experiment CSF1R IC50. The procedure: A. CSF-1R In Vitro Biochemical Kinase Study
In the present invention, the inhibitory activity of compounds against the CSF-1R activity was determined by using CSF-1R ADP-Glo assay. The compound-mediated inhibition effect was achieved by inhibiting the production of ADP from consumption of ATP, and the activities of compounds were evaluated by using the ADP-Glo kit (Promega, cat. No. V9101). The specific experimental process was as follows:
1. The kinase reaction performed in the present invention was carried out in a 384-well plate (Perkinelmer, cat. No. 6007290), 3.95 nM of CSF-1R, 500 μM of ATP, and 0.2 mg/mL of polypeptide (Poly (Glu4, Try1), Sigma, cat. No. P0275) were respectively weighed and added to each well:
2. following reagents were then added to each well to reach the final reaction system: 40 mM Tris, pH 7.5, 20 mM MgCl2, 0.01% Triton X-100, 0.1 mg/mL BSA, 2.5 mM DTT, and 0.1% DMSO;
3. the reaction was conducted at 30° C. for 60 min;
4. then an equal volume of stop solution (ADP-Glo) was added to the kinase reaction system;
5. the mixed solution was incubated at 25° C. for 60 min, and the kinase reaction was then terminated;
6. a two-fold volume of detection reagent was then added to each well;
7. the mixed solution was incubated at 25° C. for 30 min;
8. the compound IC50 value was measured by using a plate reader (Tecan, M1000) and a four-parameter curve was generated in Graphpad Prism.

The test system of experiment [2] is M-NFS-60 mouse myeloid leukemia lymphocytes. Briefly: CSF-1R-related cell proliferation experiment (Cell Titer Glo), M-NFS-60 cells with M-CSF. Type of experiment: cell-based. As to conditions: Lymphocyte, 72 h, 3 days, CTG, * = average of multiple tests. The procedure: C. CSF-1R-Related Cell Proliferation Experiment
Functional effects of compounds on cell proliferation were evaluated by using Cell Titer Glo (CTG) study in the present invention. M-NFS-60 mouse myeloid leukemia lymphocytes (cat. No. CCBJ078) from National Institutes For Food and Drug Control were cultured in the incubator under conditions of RPMI 1640 (Gibco, cat. No. 11875-119), 10% fetal bovine serum (Gibco, 10099-141), human 10 ng/mL M-CSF macrophage colony-stimulating factor (R&D, cat. No. MVN0915101), 37° C., and 5% CO2. Since ATP is an index for viable cell metabolism, CTG (Promega, #G7573) reagent is a homogeneous detection method for detecting the number of viable cells in the culture by quantifying ATP. Therefore, compound-mediated inhibition for cell proliferation/survival was evaluated by quantifying ATP content in cells, and the specific experimental process was as follows:
1. The cells were plated into a tissue-culture-medium-treated 96-well plate (Costar #3904) with 5,000 cells/well/80 μL fresh culture medium;
2. 24 hours later, 10 μL culture medium containing testing compound with 10-fold of final concentration was added to each well;
3. 10 μL of culture medium containing M-CSF with 10-fold of the final concentration was then added to each well;
4. dosage effect was evaluated by testing the 3-fold serial dilutions of the compound;
(§1) 5. after the cells were incubated for 3 days at 37° C. and 5% CO2, the inhibition on cell survival was quantified after 50 μL of CTG was added and the luminescence assay was performed;
(§2) 6. the compound concentration leading to half maximal inhibitory (IC50) and the compound concentration leading to absolute half maximal inhibitory (Absolute IC50) were measured by a plate reader (M1000, Tecan) and a four-parameter curve fit in Graphpad Prism 7.
(Cellular ATP, detected with luciferase, serves as a proxy for viable cell number.)

For experiment [3], the system named is MV-4-11 human acute monocytic leukemia cells. Briefly: Cell proliferation (Cell Titer Glo), MV-4-11 cells (FLT3). It is filed as cell-based. As to conditions: MV4-11, 72 h, 3 days, CTG, * = average of multiple tests, read-out: Cytological experiment FLT3 IC50. As to the method: (§3) D. CSF-1R-Related Cell Proliferation Experiment
(§4) Functional effects of compounds on the proliferation of several cell lines were evaluated by Cell Titer Glo (CTG) studies in the present invention, and effects of the compounds on the proliferation of different cells were evaluated to determine the selectivity degree of the compounds. In the experiment, M-07e human cytomegalic leukemia cells (cat. No. CBP60791) from Nanjing Kebai Biotechnology Co., Ltd. were cultured in an incubator under conditions of RPMI1640 (Gibco, cat. No. 11875-119), 20% fetal bovine serum (Gibco, 10099-141), human 10 ng/mL GM-CSF granulocyte macrophage colony-stimulating factors (R&D, cat. No. 215-GM-010), 37° C., and 5% CO2; and Kasumi-1 human acute myeloblastic leukemia cells (cat. No. CBP60524) were cultured in an incubator under conditions of RPMI1640 (Gibco, cat. No. 11875-119), 20% fetal bovine serum (Gibco, 10099-141), 37° C., and 5% CO2: NCI-H1703 human non-small cell lung squamous carcinoma cells (cat. No. CBP60115) were cultured in an incubator under conditions of RPMI1640 (Gibco, cat. No. 11875-119), 10% fetal bovine serum (Gibco, 10099-141), 37° C., and 5% CO2; MV-4-11 human acute monocytic leukemia cells (cat. No. CBP60522) were cultured in an incubator under conditions of IMDM (Invitrogen, cat. No. 12440053), 20% fetal bovine serum (Gibco, 10099-141), 37° C., and 5% CO2. Since ATP is an index for viable cell metabolism, CTG (Promega, #G7573) reagent is a homogeneous detection method for detecting the number of viable cells in the culture by quantifying ATP. Therefore, compound-mediated inhibition for cell proliferation/survival was evaluated by quantifying ATP content in cells, and the specific experimental process was as follows.
III) MV-4-11 Human Acute Monocytic Leukemia Cell
1. The cells were inoculated into a tissue-culture-medium-treated 96-well plate (Costar #3904) with 5000 cells/well/90 μL fresh culture medium, and cultured for 24 hrs:
2. the next day, 10 μL of culture medium containing testing compound with 10-fold of final concentration was added to each well;
(§5) 3. the dosage effect was evaluated by testing 3-fold serial dilutions of the compound, which started from 18 μM;
4. after the cells were incubated for 3 days at 37° C. and 5% CO2, the inhibition on cell survival was quantified after 50 μL of CTG was added and the luminescence assay was performed;
(§6) 5. the compound concentration leading to half maximal inhibitory (IC50) and the compound concentration leading to absolute half maximal inhibitory (Absolute IC50) were measured by a plate reader (M1000, Tecan) and a four-parameter curve fit in Graphpad Prism 7.

Experiment [4] has as its system M-07e human cytomegalic leukemia cells. Briefly: Cell proliferation (Cell Titer Glo), M-07e cells with SCF (KIT). It is filed as cell-based. As to conditions: 72 h, 3 days, CTG, * = average of multiple tests, read-out: Cytological experiment KIT IC50. As to the method: as §3, §4
I) M-07e Human Cytomegalic Leukemia Cell:
1. The cells were plated into a tissue-culture-medium-treated 96-well plate (Costar #3904) with 3500 cells/well/80 μL fresh culture medium, and cultured for 24 hrs;
(§7) 2. the next day, 10 μL of culture medium containing testing compound with 10-fold of final concentration was added to each well:
3. 10 μL of culture medium containing SCF recombinant human stem cell factor (R&D, cat. No. 7466-SC-010) with 10-fold of the final concentration was then added to each well;
4. the dosage effect was evaluated by testing 4-fold serial dilutions of the compound, which started from 18 μM;
as §1, §2

The subject of experiment [5] is NCI-H1703 human non-small cell lung squamous carcinoma cells. Briefly: Cell proliferation (Cell Titer Glo), NCI-H1703 cells (PDGFRA). It is filed as cell-based. The conditions noted are these: 72 h, 3 days, CTG, * = average of multiple tests, read-out: Cytological experiment PDGFRA IC50. As to the method: as §3, §4
II) NCI-H1703 Human Non-Small Cell Lung Squamous Carcinoma Cell
1. The cells were inoculated into a tissue-culture-medium-treated 96-well plate (Costar #3904) with 5000 cells/well/90 μL fresh culture medium, and cultured for 24 hrs;
as §7, §5
4. after the cells were incubated for 3 days at 37° C. and 5% CO2, the inhibition on cell survival was quantified after 50 μL of CTG was added and the luminescence assay was performed:
as §6

Where [6] appears, read: read-out: Cytological experiment CSF1R IC50.
Setting [7] is: absolute half maximal inhibition, read-out: Cytological experiment CSF-1R Absolute IC50.

Like-named read-outs stand apart in the source and are kept apart here.

Chain of CSF-1R (P07333 20-972): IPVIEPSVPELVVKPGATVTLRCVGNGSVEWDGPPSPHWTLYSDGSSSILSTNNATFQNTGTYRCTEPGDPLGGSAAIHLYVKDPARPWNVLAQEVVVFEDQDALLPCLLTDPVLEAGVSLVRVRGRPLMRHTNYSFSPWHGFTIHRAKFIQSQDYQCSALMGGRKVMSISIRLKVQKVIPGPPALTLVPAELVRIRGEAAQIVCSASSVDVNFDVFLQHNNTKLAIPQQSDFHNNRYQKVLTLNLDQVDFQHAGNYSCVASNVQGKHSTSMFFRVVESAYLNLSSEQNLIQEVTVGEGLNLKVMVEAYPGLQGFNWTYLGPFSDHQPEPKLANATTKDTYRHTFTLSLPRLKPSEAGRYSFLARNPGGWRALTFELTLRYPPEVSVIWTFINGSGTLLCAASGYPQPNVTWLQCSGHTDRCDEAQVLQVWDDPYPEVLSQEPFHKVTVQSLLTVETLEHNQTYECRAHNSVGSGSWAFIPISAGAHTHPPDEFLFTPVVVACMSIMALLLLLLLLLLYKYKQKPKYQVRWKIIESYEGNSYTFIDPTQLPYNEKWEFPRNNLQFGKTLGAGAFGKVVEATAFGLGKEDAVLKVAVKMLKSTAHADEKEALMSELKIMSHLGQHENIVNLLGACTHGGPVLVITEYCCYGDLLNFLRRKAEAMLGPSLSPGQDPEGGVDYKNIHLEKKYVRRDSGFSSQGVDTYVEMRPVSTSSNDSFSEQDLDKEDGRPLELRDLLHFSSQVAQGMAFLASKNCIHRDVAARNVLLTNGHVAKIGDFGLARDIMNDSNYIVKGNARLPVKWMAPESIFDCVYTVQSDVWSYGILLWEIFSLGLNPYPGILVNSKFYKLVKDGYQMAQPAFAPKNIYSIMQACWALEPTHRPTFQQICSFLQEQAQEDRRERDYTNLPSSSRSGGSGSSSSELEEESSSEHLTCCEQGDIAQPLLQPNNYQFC

By IC50 is commonly meant the concentration that inhibits the measured activity by half. As to `Cc1nc(-c2cnc3n(c2=O)CCN3C)ccc1Oc1ccnc(-c2cnn(C)c2)c1` [Example 3, 1-methyl-6-(6-methyl-5-((2-(1-methyl-1H-pyrazol-4-yl)pyridin-4-yl)oxy)pyridin-2-yl)-2,3-dihydroimidazo[1,2-a]pyrimidin-5(1H)-one], the values for the IC50 in experiment [1], in experiment [2] (setting [6]) and in experiment [2] (setting [7]) were 0.157 µM, 0.249 µM and 0.185 µM, respectively.
Take `Cc1nc(-c2cnc3n(c2=O)CC[C@@H](C)N3)ccc1Oc1ccnc(-c2cnn(C)c2)c1` [Example 6, (R)-8-methyl-3-(6-methyl-5-((2-(1-methyl-1H-pyrazol-4-yl)pyridin-4-yl)oxy)pyridin-2-yl)-6,7,8,9-tetrahydro-4H-pyrimido[1,2-a]pyrimidin-4-one]: the IC50 was 0.296 µM in experiment [1], above 2 µM in experiment [2] (setting [6]) and 0.71 µM in experiment [2] (setting [7]).
Turning to `Cc1nc(-c2cnc3n(c2=O)CCCN3C)ccc1Oc1ccnc(-c2cn[nH]c2)c1` [Example 7, 3-(5-((2-(1H-pyrazol-4-yl)pyridin-4-yl)oxy)-6-methylpyridin-2-yl)-9-methyl-6,7,8,9-tetrahydro-4H-pyrimido[1,2-a] pyrimidin-4-one], the IC50 in experiment [3] is above 18 µM; in experiment [1] it was 0.0842 µM; in experiment [4] it was above 1.12 µM; in experiment [2] (setting [6]), 0.498 µM; in experiment [2] (setting [7]), 0.488 µM; in experiment [5] it was above 2 µM.
Turning to `CCn1cc(-c2cc(Oc3ccc(-c4cnc5n(c4=O)CCCN5C)nc3C)ccn2)cn1` [Example 8], the IC50 was determined as 0.0777 µM in experiment [1], 0.151 µM in experiment [2] (setting [6]) and 0.361 µM in experiment [2] (setting [7]).
Turning to `Cc1nc(-c2cnc3n(c2=O)CCCN3C2CCC2)ccc1Oc1ccnc(-c2cnn(C)c2)c1` [Example 9, 9-cyclobutyl-3-(6-methyl-5-((2-(1-methyl-1H-pyrazol-4-yl)pyridin-4-yl)oxy)pyridin-2-yl)-6,7,8,9-tetrahydro-4H-pyrimido[1,2-a]pyrimidin-4-one], the IC50 in experiment [3] amounted to 2 µM; in experiment [1] it was 0.0683 µM; in experiment [4], 0.321 µM; in experiment [2] (setting [6]), 0.0648 µM; in experiment [2] (setting [7]) it was 0.0589 µM; in experiment [5], 1.58 µM.
With `Cc1nc(-c2cnc3n(c2=O)CCC(C)N3C)ccc1Oc1ccnc(-c2cnn(C)c2)c1` (stereo not drawn) [Example 10, 8,9-dimethyl-3-(6-methyl-5-((2-(1-methyl-1H-pyrazol-4-yl)pyridin-4-yl)oxy)pyridin-2-yl)-6,7,8,9-tetrahydro-4H-pyrimido[1,2-a]pyrimidin-4-one], the IC50 was above 18 µM in experiment [3]; 0.108 µM in experiment [1]; above 18 µM in experiment [4]; 0.135 µM in experiment [2] (setting [6]); 0.124 µM in experiment [2] (setting [7]); above 18 µM in experiment [5].
Regarding `CCCN1CCCn2c1ncc(-c1ccc(Oc3ccnc(-c4cnn(C)c4)c3)c(C)n1)c2=O` [Example 11, 3-(6-methyl-5-((2-(1-methyl-1H-pyrazol-4-yl)pyridin-4-yl)oxy)pyridin-2-yl)-9-propyl-6,7,8,9-tetrahydro-4H-pyrimido [1,2-a]pyrimidin-4-one], the IC50 in experiment [3] was above 6 µM; in experiment [1] it was 0.319 µM; in experiment [4], above 2 µM; in experiment [2] (setting [6]), 0.222 µM; in experiment [2] (setting [7]), 0.273 µM; in experiment [5], above 6 µM.
In the case of `Cc1nc(-c2cnc3n(c2=O)CC[C@@H]2CCCN32)ccc1Oc1ccnc(-c2cnn(C)c2)c1` [Example 12], the half-maximal inhibitory concentration (IC50) was above 18 µM in experiment [3]; 0.107 µM in experiment [1]; 0.755 µM in experiment [4]; 0.0852 µM in experiment [2] (setting [6]); 0.0778 µM in experiment [2] (setting [7]); above 2 µM in experiment [5].

Source of the values: patent publication US11130762B2, “Azaaryl derivative, preparation method therefor, and application thereof for use in pharmacy” (Abbisko Therapeutics Co., Ltd., priority 2017, dated 2021).
